Laboratory results from patent US10562850B2, “Human plasma kallikrein inhibitors” (priority 2015, dated 2020).
pKi: −log10 of the molar value.

These compounds were tested against human plasma kallikrein (Homo sapiens (Human), UniProt P03952) (assay: Plasma Kallikrein Activity Assay (chromogenic substrate S2302)). Settings: 2 nM kallikrein, 80 μM S2302, 30° C., pH 7.8; Cheng-Prusoff.
Chain of human plasma kallikrein (P03952 391-638): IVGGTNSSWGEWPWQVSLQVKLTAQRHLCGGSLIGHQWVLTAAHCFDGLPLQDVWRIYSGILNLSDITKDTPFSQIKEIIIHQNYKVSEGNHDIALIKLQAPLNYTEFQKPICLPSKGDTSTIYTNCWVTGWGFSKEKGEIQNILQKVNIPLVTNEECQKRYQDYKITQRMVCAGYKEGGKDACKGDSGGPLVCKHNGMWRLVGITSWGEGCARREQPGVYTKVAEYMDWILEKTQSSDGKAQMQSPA
Chain of human plasma kallikrein (P03952 20-390 partner): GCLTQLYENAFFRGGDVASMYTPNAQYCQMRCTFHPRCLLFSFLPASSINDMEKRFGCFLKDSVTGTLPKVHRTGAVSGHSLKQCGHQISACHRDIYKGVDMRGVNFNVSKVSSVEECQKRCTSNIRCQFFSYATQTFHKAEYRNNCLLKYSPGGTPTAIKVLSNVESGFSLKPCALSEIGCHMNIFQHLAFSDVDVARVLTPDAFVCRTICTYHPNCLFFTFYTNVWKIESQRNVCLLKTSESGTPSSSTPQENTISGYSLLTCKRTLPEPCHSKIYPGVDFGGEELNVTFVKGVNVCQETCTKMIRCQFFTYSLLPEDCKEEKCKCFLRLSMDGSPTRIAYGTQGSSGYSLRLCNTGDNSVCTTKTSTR
Type: biochemical
Method: Plasma Kallikrein Activity Assay.
The effect of compounds of the invention on human plasma kallikrein activity was determined using the chromogenic substrates (DiaPharma Group, Inc., West Chester, Ohio, USA). In these experiments, 2 nM kallikrein (Enzyme Research Laboratories, South Bend, Ind., USA) was incubated with 80 μM S2302 (H-D-Pro-Phe-Arg-p-nitroaniline) in the absence or presence of increasing concentrations of compounds of the invention in a final volume of 200 μL Tris-HCl buffer (200 mM NaCl; 2.5 mM CaCl2; 50 mM Tris-HCl, pH 7.8).
After incubation at 30° C., the activity of kallikrein was measured as a change in absorbance at OD 405 nm using BioTek PowerWave X340 Microplate Reader (Winooski, Vt., USA). Data were analyzed using SigmaPlot software (Systat Software, Inc., San Jose, Calif., USA) (Four Parameter Logistic Curve). Ki values for the inhibitors were determined using the Cheng-Prusoff equation (Biochem. Pharmacol. 1973, 22, 3099).
In the case of `CC(=O)O[C@@H]1C[C@H](C(=O)Nc2cc(C(N)(CCC3CC3)c3cccc(C#N)c3)ccc2F)N(C(=O)Nc2ccc(Cl)cn2)C1` (stereo partly drawn) [Compound 14g, (3R,5R)-5-(5-((+)-1-amino-1-(3-cyanophenyl)-3-cyclopropylpropyl)-2-fluorophenylcarbamoyl)-1-(5-chloropyridin-2-ylcarbamoyl)pyrrolidin-3-yl acetate], the pKi was < 7.00.
For `N#Cc1cccc(C(N)(CCC2CC2)c2ccc(F)c(NC(=O)[C@H]3C[C@@H](O)CN3C(=O)Nc3ccc(Cl)cn3)c2)c1` (stereo partly drawn) [Compound 14h, (2R,4R)-N2-(5-(1-amino-1-(3-cyanophenyl)-3-cyclopropylpropyl)-2-fluorophenyl)-N1-(5-chloropyridin-2-yl)-4-hydroxypyrrolidine-1,2-dicarboxamide], the pKi was > 7.30.
In the case of `CO[C@@H]1C[C@H](C(=O)Nc2cc(C(N)(CCC3CC3)c3cccc(C#N)c3)ccc2F)N(C(=O)Nc2ccc(C#N)cc2)C1` (stereo partly drawn) [Compound 15f, (2R,4R)-N2-(5-((+)-1-amino-1-(3-cyanophenyl)-3-cyclopropylpropyl)-2-fluorophenyl)-N1-(4-cyanophenyl)-4-methoxypyrrolidine-1,2-dicarboxamide], the pKi was < 7.00.
With `COc1ccc(NC(=O)N2C[C@H](OC)C[C@@H]2C(=O)Nc2cc(C(N)(CCC3CC3)c3cccc(C#N)c3)ccc2F)cc1` (stereo partly drawn) [Compound 16b, (2R,4R)-N2-(5-((+)-1-amino-1-(3-cyanophenyl)-3-cyclopropylpropyl)-2-fluorophenyl)-4-methoxy-N1-(4-methoxyphenyl)pyrrolidine-1,2-dicarboxamide] the pKi was < 7.00.
Compound `CO[C@@H]1C[C@H](C(=O)Nc2cc(C(N)(CCC3CC3)c3cccc(C#N)c3)ccc2F)N(C(=O)Nc2ccc(Cl)cc2)C1` (stereo partly drawn) [Compound 17b, (2R,4R)-N2-(5-((+)-1-amino-1-(3-cyanophenyl)-3-cyclopropylpropyl)-2-fluorophenyl)-4-methoxy-N1-(4-chlorophenyl)pyrrolidine-1,2-dicarboxamide] has a pKi of 7.00 to 7.30.
With `CO[C@@H]1C[C@H](C(=O)Nc2cc(C(CCC3CC3)(N[S@+]([O-])C(C)(C)C)c3cccc(C#N)c3)ccc2F)N(C(=O)Nc2ccc(Cl)cn2)C1` (stereo partly shown) [Compound 18a] the pKi was > 7.30.
In the case of `CO[C@@H]1C[C@H](C(=O)Nc2cc(C(N)(CCC3CC3)c3cccc(C#N)c3)ccc2F)N(C(=O)Nc2ccc(Cl)cn2)C1` (stereo partly drawn) [Compound 18b, (2R,4R)-N2-(5-((+)-1-amino-1-(3-cyanophenyl)-3-cyclopropylpropyl)-2-fluorophenyl)-N1-(5-chloropyridin-2-yl)-4-methoxypyrrolidine-1,2-dicarboxamide], the pKi was > 7.30.
`N#Cc1cccc(C(N)(CCC2CC2)c2ccc(F)c(NC(=O)[C@H]3C[C@@H](N)CN3C(=O)Nc3ccc(Cl)cc3)c2)c1` (stereo partly drawn) [Compound 19c, (2R,4R)-4-amino-N2-(5-((+)-1-amino-1-(3-cyanophenyl)-3-cyclopropylpropyl)-2-fluorophenyl)-N1-(4-chlorophenyl)pyrrolidine-1,2-dicarboxamide] was tested, and the pKi was < 7.00.
With `N#Cc1cccc(C(N)(CCC2CC2)c2ccc(F)c(NC(=O)[C@H]3CC(=O)CN3C(=O)Nc3ccc(Cl)cc3)c2)c1` (stereo partly drawn) [Compound 20b, (R)-N2-(5-(1-amino-1-(3-cyanophenyl)-3-cyclopropylpropyl)-2-fluorophenyl)-N1-(4-chlorophenyl)-4-oxopyrrolidine-1,2-dicarboxamide] the pKi was < 7.00.
For `N#Cc1cccc(C(N)(CCC2CC2)c2ccc(F)c(NC(=O)[C@H]3C[C@@H](O)CN3C(=O)Nc3ccccc3)c2)c1` (stereo partly drawn) [Compound 21d, (2R,4R)-N2-(5-((+)-1-amino-1-(3-cyanophenyl)-3-cyclopropylpropyl)-2-fluorophenyl)-4-hydroxy-N1-phenylpyrrolidine-1,2-dicarboxamide], the pKi was < 7.00.
With `Cc1ccc(NC(=O)N2C[C@H](O)C[C@@H]2C(=O)Nc2cc(C(N)(CCC3CC3)c3cccc(C#N)c3)ccc2F)cc1` (stereo partly drawn) [Compound 22b, (2R,4R)-N2-(5-((+)-1-amino-1-(3-cyanophenyl)-3-cyclopropylpropyl)-2-fluorophenyl)-4-hydroxy-N1-p-tolylpyrrolidine-1,2-dicarboxamide] the pKi was < 7.00.
Compound `N#Cc1cccc(C(N)(CCC2CC2)c2ccc(F)c(NC(=O)[C@H]3C[C@@H](O)CN3C(=O)Nc3ccc(Br)cc3)c2)c1` (stereo partly drawn) [Compound 23b, (2R,4R)-N2-(5-((+)-1-amino-1-(3-cyanophenyl)-3-cyclopropylpropyl)-2-fluorophenyl)-N1-(4-bromophenyl)-4-hydroxypyrrolidine-1,2-dicarboxamide] has a pKi of 7.00 to 7.30.
With `N#Cc1cccc(C(N)(CCC2CC2)c2ccc(F)c(NC(=O)[C@H]3C[C@@H](O)CN3C(=O)Nc3ccc(F)cc3)c2)c1` (stereo partly drawn) [Compound 24b, (2R,4R)-N2-(5-((+)-1-amino-1-(3-cyanophenyl)-3-cyclopropylpropyl)-2-fluorophenyl)-N1-(4-fluorophenyl)-4-hydroxypyrrolidine-1,2-dicarboxamide] the pKi was < 7.00.
With `N#Cc1cccc(C(N)(CCC2CC2)c2ccc(F)c(NC(=O)[C@H]3C[C@@H](O)CN3C(=O)Nc3ccc([N+](=O)[O-])cc3)c2)c1` (stereo partly drawn) [Compound 25b, (2R,4R)-N2-(5-((+)-1-amino-1-(3-cyanophenyl)-3-cyclopropylpropyl)-2-fluorophenyl)-4-hydroxy-N1-(4-nitrophenyl)pyrrolidine-1,2-dicarboxamide] the pKi was < 7.00.
`N#Cc1cccc(C(N)(CCC2CC2)c2ccc(F)c(NC(=O)[C@H]3C[C@@H](O)CN3C(=O)Nc3cccc4ccccc34)c2)c1` (stereo partly drawn) [Compound 26b, (2R,4R)-N2-(5-((+)-1-amino-1-(3-cyanophenyl)-3-cyclopropylpropyl)-2-fluorophenyl)-4-hydroxy-N1-(naphthalen-1-yl)pyrrolidine-1,2-dicarboxamide] was tested, and the pKi was < 7.00.
In the case of `CC(C)(C)[S@@+]([O-])NC(CCC1CC1)(c1cccc(C#N)c1)c1ccc(F)c(NC(=O)[C@H]2C[C@@H](O)CN2C(=O)Nc2ccc(C(F)(F)F)cc2)c1` (stereo partly drawn) [Compound 27a, (2R,4R)-N2-(5-((+)-1-(3-cyanophenyl)-3-cyclopropyl-1-((R)-1,1-dimethylethylsulfinamido)propyl)-2-fluorophenyl)-4-hydroxy-N1-(4-(trifluoromethyl)phenyl)pyrrolidine-1,2-dicarboxamide], the pKi was < 7.00.
In the case of `N#Cc1cccc(C(N)(CCC2CC2)c2ccc(F)c(NC(=O)[C@H]3C[C@@H](O)CN3C(=O)Nc3ccc(C(F)(F)F)cc3)c2)c1` (stereo partly drawn) [Compound 27b, (2R,4R)-N2-(5-((+)-1-amino-1-(3-cyanophenyl)-3-cyclopropylpropyl)-2-fluorophenyl)-4-hydroxy-N1-(4-(trifluoromethyl)phenyl)pyrrolidine-1,2-dicarboxamide], the pKi was < 7.00.
With `N#Cc1cccc(C(N)(CCC2CC2)c2ccc(F)c(NC(=O)[C@H]3C[C@@H](O)CN3C(=O)Nc3ccc(N)cc3)c2)c1` (stereo partly drawn) [Compound 28b, (2R,4R)-N2-(5-((+)-1-amino-1-(3-cyanophenyl)-3-cyclopropylpropyl)-2-fluorophenyl)-N1-(4-aminophenyl)-4-hydroxypyrrolidine-1,2-dicarboxamide] the pKi was < 7.00.
In the case of `N#Cc1cccc(C(N)(CCC2CC2)c2ccc(F)c(NC(=O)[C@H]3C[C@](O)(c4ccccc4)CN3)c2)c1` (stereo partly drawn) [Compound 29d, (2R,4S)-N-(5-((−)-1-amino-1-(3-cyanophenyl)-3-cyclopropylpropyl)-2-fluorophenyl)-4-hydroxy-4-phenylpyrrolidine-2-carboxamide], the pKi was < 7.00.
